{"source": "patent US10882853B2", "about": "“Tyrosine kinase inhibitor and application thereof” (LaNova Medicines Limited, priority 2016, dated 2021)", "key": {"KDR": {"biological_target": "KDR (Homo sapiens (Human), UniProt P35968)", "sequence (P35968 20-1356)": "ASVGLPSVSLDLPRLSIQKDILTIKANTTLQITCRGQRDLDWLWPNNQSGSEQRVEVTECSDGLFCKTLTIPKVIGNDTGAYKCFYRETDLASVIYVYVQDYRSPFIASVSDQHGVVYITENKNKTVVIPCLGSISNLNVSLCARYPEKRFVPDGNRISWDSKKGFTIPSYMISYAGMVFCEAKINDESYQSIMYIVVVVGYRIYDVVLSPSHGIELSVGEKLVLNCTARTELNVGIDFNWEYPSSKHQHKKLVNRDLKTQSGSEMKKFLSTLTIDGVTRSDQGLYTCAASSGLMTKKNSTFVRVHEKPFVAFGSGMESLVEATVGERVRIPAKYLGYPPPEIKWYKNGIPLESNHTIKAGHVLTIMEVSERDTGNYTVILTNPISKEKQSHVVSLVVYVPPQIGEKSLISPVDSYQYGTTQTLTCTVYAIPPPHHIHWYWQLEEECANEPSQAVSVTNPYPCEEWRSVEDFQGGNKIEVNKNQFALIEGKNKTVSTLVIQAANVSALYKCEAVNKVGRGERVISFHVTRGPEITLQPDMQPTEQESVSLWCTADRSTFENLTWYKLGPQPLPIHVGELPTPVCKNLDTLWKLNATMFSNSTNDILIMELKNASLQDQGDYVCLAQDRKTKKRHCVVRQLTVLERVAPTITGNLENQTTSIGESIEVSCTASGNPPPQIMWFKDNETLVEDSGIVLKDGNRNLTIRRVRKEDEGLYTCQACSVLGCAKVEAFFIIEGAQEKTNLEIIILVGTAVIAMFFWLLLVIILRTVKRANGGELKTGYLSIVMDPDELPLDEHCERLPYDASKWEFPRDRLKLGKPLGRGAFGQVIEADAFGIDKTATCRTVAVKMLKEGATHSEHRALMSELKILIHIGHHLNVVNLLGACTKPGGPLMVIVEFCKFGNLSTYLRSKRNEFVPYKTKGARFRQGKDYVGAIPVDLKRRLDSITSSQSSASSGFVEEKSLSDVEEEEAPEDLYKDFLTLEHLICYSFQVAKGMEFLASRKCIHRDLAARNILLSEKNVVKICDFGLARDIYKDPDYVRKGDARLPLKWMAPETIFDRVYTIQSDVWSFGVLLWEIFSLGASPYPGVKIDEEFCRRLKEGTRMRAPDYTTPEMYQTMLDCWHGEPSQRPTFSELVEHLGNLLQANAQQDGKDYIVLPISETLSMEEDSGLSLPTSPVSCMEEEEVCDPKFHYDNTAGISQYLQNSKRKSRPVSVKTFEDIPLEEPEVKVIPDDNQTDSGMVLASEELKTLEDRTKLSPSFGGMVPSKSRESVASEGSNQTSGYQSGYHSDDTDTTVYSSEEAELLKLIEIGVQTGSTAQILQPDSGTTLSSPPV", "assay": "Inhibitory activity on KDR kinase (HTRF, XL-665/antibody)", "type": "biochemical", "method": "The compounds in the above Examples are used for detecting and screening the inhibitory activities of C-MET and KDR kinase.\n(2) Incubated at 25° C. for 5 min;\n(3) 2 μL of ATP/substrate/MgCl2/MnCl2/SEB/DTT mixed solution were added into the holes;\n(4) Centrifugated at 1000 rpm for 1 min, and incubated by vibration at 30° C. for 30 min;\n(6) Incubated at 25° C. for 1 h;\n(8) The data was analyzed according to the instructions of the kit, and the fitting calculation of IC50 was performed using GraphPad Prism5."}, "[1]": {"system": "human lung adenocarcinoma cells HCC78", "assay": "Inhibition on the proliferation of tumor cells (CCK8), HCC78", "type": "cell-based", "conditions": "read-out: HCC78 IC50", "method": "(§1) (1) Culture cells: The tumor cells (such as human lung adenocarcinoma cells HCC78, human malignant glioma cells U87MG, human gastric cancer cells MKN-45, human umbilical vein endothelial cells HUVEC, human lung adenocarcinoma cells A549, etc.) were cultured in culture medium; culture conditions: 37° C., 5% CO2.\n(§2) (2) Inoculate cells: The cells at the exponential growth phase and in good state were taken, and an appropriate amount of pancreatin for cell dissociation was added thereto, the cells were collected for centrifugation, and the supernatant was discarded. The cells were resuspended with the culture solution containing serum, then counted, and the cell suspensions were taken and inoculated in a 96-hole plate at 3000/hole, 90 μL/hole. The culture plate was transferred into a constant temperature CO2 incubator, and cultured under the conditions of 37° C., 5% CO2 and saturated humidity for 24 h.\n(§3) (3) Add the test compounds: 10 μL/hole, culture for 72 h, 3 parallel holes were set for each group."}, "[2]": {"system": "human malignant glioma cells U87MG", "assay": "Inhibition on the proliferation of tumor cells (CCK8), U87MG", "type": "cell-based", "conditions": "read-out: U87MG IC50", "method": "as §1, §2, §3\n(§4) (4) Determine the results: After 72 h of action for the compounds, 10 μL/hole CCK8 was added, incubated in the incubator for an appropriate time, and the absorbance was measured at 450 nm."}, "[3]": {"system": "human gastric cancer cells MKN-45", "assay": "Inhibition on the proliferation of tumor cells (CCK8), MKN-45", "type": "cell-based", "conditions": "read-out: MKN-45 IC50", "method": "as §1, §2, §3, §4"}, "[4]": {"system": "human ovarian cancer cells SK-OV-3", "assay": "Inhibition on the proliferation of tumor cells (CCK8), SK-OV-3", "type": "cell-based", "conditions": "for IC50: read-out: SK-OV-3 IC50", "method": "as §1, §2, §3"}, "[5]": {"system": "human colon cancer cells HCT116", "assay": "Inhibition on the proliferation of tumor cells (CCK8), HCT116", "type": "cell-based", "conditions": "for IC50: read-out: HCT116 IC50", "method": "as §1, §2, §3"}, "[6]": {"system": "human lung adenocarcinoma cells A549", "assay": "Inhibition on the proliferation of tumor cells (CCK8), A549", "type": "cell-based", "conditions": "for IC50: read-out: A549 IC50", "method": "as §1, §2, §3"}}, "note": "Like-named read-outs stand apart in the source and are kept apart here.", "data": [{"smiles": "COc1cc2c(Oc3ccc(NC(=O)C4(C(=O)Nc5ccc(F)cc5)CC4)cc3F)ccnc2cc1OCC1CC(N2CCOCC2)C1", "note": "(centres unmarked) [Compound 5]", "values": [{"measurement": "IC50", "setting": "KDR", "value": 0.0399, "unit": "µM"}, {"measurement": "IC50", "setting": "[1]; Table 4 (FIG. 4), 72 h, CCK8", "value": 0.0442, "unit": "µM"}, {"measurement": "IC50", "setting": "[2]; 72 h, CCK8", "value": 1.14, "unit": "µM"}, {"measurement": "IC50", "setting": "[3]; 72 h, CCK8", "value": 1.26, "unit": "µM"}, {"measurement": "IC50", "setting": "[4]; 72 h, CCK8", "value": 3.49, "unit": "µM"}, {"measurement": "IC50", "setting": "[5]; 72 h, CCK8", "value": 1.66, "unit": "µM"}, {"measurement": "IC50", "setting": "[6]; 72 h, CCK8", "value": 1.6, "unit": "µM"}]}, {"smiles": "COc1cc2c(Oc3ccc(NC(=O)C4(C(=O)Nc5ccc(F)cc5)CC4)cc3F)ccnc2cc1OC1CC(N2CCOCC2)C1", "note": "(centres unmarked) [Compound 10, N-p-fluorophenyl-N-3-fluoro-4-[6-methoxyl-7-(3-morpholine-cyclobutyl)oxyquinoline-4-]oxyphenyl cyclopropyl-1,1-dimethyl formamide]", "values": [{"measurement": "IC50", "setting": "KDR", "value": 0.0642, "unit": "µM"}, {"measurement": "IC50", "setting": "[1]", "value": 0.107, "unit": "µM"}, {"measurement": "IC50", "setting": "[2]", "value": 1.59, "unit": "µM"}, {"measurement": "IC50", "setting": "[3]", "value": 3.21, "unit": "µM"}, {"measurement": "IC50", "setting": "[4]", "value": 7.85, "unit": "µM"}, {"measurement": "IC50", "setting": "[5]", "value": 2.6, "unit": "µM"}, {"measurement": "IC50", "setting": "[6]", "value": 4.4, "unit": "µM"}]}, {"smiles": "COc1cc2c(Oc3ccc(NC(=O)C4(C(=O)Nc5ccc(F)c(F)c5)CC4)cc3F)ccnc2cc1OCCC[N+]1(C)CCOCC1", "note": "[For-Methyl, reference compound]", "values": [{"measurement": "IC50", "setting": "[1]; Homo sapiens, HCC78, 72 h", "value": "> 10", "unit": "µM"}, {"measurement": "SK-OV-3 IC50", "setting": "[4]", "value": "No inhibition"}, {"measurement": "HCT116 IC50", "setting": "[5]", "value": "No inhibition"}, {"measurement": "A549 IC50", "setting": "[6]", "value": "No inhibition"}]}, {"smiles": "COc1cc2c(Oc3ccc(NC(=O)C4(C(=O)Nc5ccc(F)cc5)CC4)cc3F)ccnc2cc1OCCCN1CCOCC1", "note": "[Foretinib, reference compound]", "values": [{"measurement": "IC50", "setting": "[2]; Homo sapiens, U-87 MG, 72 h", "value": 1.65, "unit": "µM"}, {"measurement": "IC50", "setting": "[3]; Homo sapiens, MKN-45, 72 h", "value": 1.87, "unit": "µM"}, {"measurement": "IC50", "setting": "[4]; Homo sapiens, SK-OV-3, 72 h", "value": 17.2, "unit": "µM"}, {"measurement": "IC50", "setting": "[5]; Homo sapiens, HCT-116, 72 h", "value": 2.06, "unit": "µM"}, {"measurement": "IC50", "setting": "[6]; Homo sapiens, A549, 72 h", "value": 2.83, "unit": "µM"}]}]}
